These results are taken from publication PMC12187869, “Transport of the uremic toxin symmetric dimethylarginine (SDMA) by renal transport proteins” (Amino Acids, 2025).

pIC50: −log10 of the molar value.

What all share (format): cell-based
The target in experiment [1] is T1, CAT1 (Homo sapiens, UniProt P30825).
T1 construct: gene SLC7A1; HEK293 cells stably expressing human CAT1
Put plainly: inhibition of [3H]SDMA uptake in HEK-CAT1 cells at […].

Experiment [2] deals with T2, OATP4C1 (Homo sapiens, UniProt Q6ZQN7).
T2 construct: gene SLCO4C1; HEK293 cells stably expressing human OATP4C1
T2 sequence (Q6ZQN7 1-724): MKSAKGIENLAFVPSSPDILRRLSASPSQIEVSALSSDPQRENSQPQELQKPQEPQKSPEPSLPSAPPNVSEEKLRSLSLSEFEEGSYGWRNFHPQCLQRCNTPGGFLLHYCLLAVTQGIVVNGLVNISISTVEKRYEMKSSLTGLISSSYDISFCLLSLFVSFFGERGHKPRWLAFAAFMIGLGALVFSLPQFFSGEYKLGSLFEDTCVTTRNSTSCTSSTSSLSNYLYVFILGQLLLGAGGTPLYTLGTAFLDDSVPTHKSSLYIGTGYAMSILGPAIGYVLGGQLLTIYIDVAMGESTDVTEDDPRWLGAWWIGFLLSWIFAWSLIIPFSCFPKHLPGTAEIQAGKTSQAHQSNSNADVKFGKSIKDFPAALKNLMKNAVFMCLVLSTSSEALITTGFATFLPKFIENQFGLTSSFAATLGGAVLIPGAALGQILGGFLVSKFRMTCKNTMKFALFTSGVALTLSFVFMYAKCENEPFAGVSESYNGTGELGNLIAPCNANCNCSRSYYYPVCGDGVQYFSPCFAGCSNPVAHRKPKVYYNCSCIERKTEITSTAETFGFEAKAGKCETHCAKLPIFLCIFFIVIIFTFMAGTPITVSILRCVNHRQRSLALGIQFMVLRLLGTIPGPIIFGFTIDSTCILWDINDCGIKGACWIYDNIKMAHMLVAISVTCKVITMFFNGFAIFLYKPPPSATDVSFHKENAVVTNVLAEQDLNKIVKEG
Put plainly: inhibition of [3H]SDMA uptake in HEK-OATP4C1 cells.

Experiment [3] deals with T1, CAT1. Briefly: inhibition of [3H]SDMA uptake in HEK-CAT1 cells.
The target of experiment [4] is T2, OATP4C1. Put plainly: inhibition of [3H]SDMA uptake in HEK-OATP4C1 cells at […].
For a further experiment, the target named is T3, MATE1 (Homo sapiens, UniProt Q96FL8).
T3 construct: gene SLC47A1; HEK293 cells stably expressing human MATE1
T3 sequence (Q96FL8 1-570): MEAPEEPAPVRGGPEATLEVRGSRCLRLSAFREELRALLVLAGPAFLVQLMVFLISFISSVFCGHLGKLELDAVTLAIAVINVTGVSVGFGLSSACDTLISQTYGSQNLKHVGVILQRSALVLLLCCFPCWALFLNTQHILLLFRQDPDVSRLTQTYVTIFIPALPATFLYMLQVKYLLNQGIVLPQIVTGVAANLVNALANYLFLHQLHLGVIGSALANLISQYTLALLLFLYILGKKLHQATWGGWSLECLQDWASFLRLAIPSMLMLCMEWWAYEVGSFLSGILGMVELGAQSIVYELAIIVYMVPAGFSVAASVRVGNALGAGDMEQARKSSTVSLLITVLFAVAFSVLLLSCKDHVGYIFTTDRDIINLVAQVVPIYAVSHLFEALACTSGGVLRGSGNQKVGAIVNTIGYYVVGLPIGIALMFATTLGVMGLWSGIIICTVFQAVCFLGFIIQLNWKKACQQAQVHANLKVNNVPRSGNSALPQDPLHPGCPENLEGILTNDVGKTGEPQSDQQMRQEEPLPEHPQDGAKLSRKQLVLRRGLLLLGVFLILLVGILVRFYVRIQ
Briefly: [3H]SDMA uptake kinetics (Km) in HEK-MATE1 cells. The settings on record: read-out: Km in μM.

Another experiment has as its target T4, OCT2 (Homo sapiens, UniProt O15244).
T4 construct: gene SLC22A2; HEK293 cells stably expressing human OCT2
T4 sequence (O15244 1-555): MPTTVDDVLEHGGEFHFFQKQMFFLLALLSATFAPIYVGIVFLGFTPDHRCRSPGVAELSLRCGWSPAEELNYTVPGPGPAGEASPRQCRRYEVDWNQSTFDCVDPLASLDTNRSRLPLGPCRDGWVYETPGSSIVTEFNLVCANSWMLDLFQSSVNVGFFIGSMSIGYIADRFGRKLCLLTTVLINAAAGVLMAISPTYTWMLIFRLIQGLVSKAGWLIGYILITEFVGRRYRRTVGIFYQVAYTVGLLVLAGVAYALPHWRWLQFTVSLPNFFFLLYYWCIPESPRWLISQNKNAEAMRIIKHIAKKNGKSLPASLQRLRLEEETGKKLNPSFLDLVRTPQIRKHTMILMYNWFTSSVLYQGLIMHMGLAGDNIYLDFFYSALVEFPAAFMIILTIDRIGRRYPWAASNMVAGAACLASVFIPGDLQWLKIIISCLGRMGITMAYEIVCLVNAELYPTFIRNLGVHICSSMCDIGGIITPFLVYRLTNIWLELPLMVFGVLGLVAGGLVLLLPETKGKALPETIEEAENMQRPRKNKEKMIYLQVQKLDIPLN
Put plainly: [3H]SDMA uptake in HEK-OCT2 cells; no saturation up to […].

T1 sequence (P30825 whole entry): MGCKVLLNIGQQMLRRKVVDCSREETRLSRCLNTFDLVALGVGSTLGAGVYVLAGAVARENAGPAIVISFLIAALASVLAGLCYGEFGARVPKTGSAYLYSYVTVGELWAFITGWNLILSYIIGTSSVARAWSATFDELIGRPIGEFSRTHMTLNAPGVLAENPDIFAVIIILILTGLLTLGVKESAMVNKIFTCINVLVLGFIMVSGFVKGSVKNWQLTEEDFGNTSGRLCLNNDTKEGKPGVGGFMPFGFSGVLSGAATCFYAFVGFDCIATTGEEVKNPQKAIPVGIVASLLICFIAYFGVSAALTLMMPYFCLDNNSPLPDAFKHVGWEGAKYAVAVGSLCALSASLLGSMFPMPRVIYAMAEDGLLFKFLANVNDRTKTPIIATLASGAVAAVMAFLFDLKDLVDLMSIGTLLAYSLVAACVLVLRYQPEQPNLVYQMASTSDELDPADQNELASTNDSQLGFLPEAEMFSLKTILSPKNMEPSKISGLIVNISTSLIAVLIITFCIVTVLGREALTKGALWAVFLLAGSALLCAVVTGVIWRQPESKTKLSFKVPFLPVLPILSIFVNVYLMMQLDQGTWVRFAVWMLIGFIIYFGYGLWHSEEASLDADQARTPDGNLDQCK

With `CN(C)C(=N)NCCC[C@H](N)C(=O)O` [ADMA], the “inhibition of [3H]SDMA uptake in HEK-CAT1 cells at 50 and 500 μM” value at CAT1 [1] is reported as “all influenced SDMA transport, thereby competing with SDMA for CAT1- or OATP4C1-mediated uptake”.

By pIC50 is commonly meant the IC50 on a negative log10 scale, so that one unit is a factor of ten. For `N=C(N)NCCC[C@H](N)C(=O)O` [L-arginine], the results for the pIC50 on OATP4C1 [2] and against CAT1 [3] were 4.54 and 3.55, respectively.

Consider `N=C(N)NCCCC[C@H](N)C(=O)O` [L-homoarginine], for which the “inhibition of [3H]SDMA uptake in HEK-OATP4C1 cells at 50 and 500 μM” value against OATP4C1 [4] is “all influenced SDMA transport, thereby competing with SDMA for CAT1- or OATP4C1-mediated uptake”.

As a reminder, the Km is the concentration of substrate that gives half-maximal velocity. Regarding `CN=C(NC)NCCC[C@H](N)C(=O)O` [symmetric dimethylarginine], the Km on MATE1 was 1970 µM. Also, the “[3H]SDMA uptake in HEK-OCT2 cells; no saturation up to 4 000 μM” value at OCT2 is “significant uptake was observed for CAT1-, OATP4C1-, OCT2-, and MATE1-mediated transport”.
